# From patent publication US7419780B2, “Methods and assays for screening protein targets” (The Trustees of Columbia University in the City of New York, priority 2000, dated 2008)
# Test system: S. cerevisiae strain FY250
smiles,measurement,value
"C[C@@H]1C[C@H]2[C@@H]3CCC4=CC(=O)C=C[C@]4(C)[C@@]3(F)[C@@H](O)C[C@]2(C)[C@@]1(O)C(=O)CO [DEX, Dexamethasone]",toxicity (impaired cell growth on plate),neither DEX nor GR are toxic
